The test system of one series is THP-1. In words: Antiproliferative activity against human THP-1 cells after 72 hrs by cell titer glo assay. The format is functional, cell-based. Conditions: THP-1, 72 h.
For series [1], the target named is T1, ATPase family AAA domain-containing protein 2B (Homo sapiens, UniProt Q9ULI0).
T1 sequence (Q9ULI0 whole entry): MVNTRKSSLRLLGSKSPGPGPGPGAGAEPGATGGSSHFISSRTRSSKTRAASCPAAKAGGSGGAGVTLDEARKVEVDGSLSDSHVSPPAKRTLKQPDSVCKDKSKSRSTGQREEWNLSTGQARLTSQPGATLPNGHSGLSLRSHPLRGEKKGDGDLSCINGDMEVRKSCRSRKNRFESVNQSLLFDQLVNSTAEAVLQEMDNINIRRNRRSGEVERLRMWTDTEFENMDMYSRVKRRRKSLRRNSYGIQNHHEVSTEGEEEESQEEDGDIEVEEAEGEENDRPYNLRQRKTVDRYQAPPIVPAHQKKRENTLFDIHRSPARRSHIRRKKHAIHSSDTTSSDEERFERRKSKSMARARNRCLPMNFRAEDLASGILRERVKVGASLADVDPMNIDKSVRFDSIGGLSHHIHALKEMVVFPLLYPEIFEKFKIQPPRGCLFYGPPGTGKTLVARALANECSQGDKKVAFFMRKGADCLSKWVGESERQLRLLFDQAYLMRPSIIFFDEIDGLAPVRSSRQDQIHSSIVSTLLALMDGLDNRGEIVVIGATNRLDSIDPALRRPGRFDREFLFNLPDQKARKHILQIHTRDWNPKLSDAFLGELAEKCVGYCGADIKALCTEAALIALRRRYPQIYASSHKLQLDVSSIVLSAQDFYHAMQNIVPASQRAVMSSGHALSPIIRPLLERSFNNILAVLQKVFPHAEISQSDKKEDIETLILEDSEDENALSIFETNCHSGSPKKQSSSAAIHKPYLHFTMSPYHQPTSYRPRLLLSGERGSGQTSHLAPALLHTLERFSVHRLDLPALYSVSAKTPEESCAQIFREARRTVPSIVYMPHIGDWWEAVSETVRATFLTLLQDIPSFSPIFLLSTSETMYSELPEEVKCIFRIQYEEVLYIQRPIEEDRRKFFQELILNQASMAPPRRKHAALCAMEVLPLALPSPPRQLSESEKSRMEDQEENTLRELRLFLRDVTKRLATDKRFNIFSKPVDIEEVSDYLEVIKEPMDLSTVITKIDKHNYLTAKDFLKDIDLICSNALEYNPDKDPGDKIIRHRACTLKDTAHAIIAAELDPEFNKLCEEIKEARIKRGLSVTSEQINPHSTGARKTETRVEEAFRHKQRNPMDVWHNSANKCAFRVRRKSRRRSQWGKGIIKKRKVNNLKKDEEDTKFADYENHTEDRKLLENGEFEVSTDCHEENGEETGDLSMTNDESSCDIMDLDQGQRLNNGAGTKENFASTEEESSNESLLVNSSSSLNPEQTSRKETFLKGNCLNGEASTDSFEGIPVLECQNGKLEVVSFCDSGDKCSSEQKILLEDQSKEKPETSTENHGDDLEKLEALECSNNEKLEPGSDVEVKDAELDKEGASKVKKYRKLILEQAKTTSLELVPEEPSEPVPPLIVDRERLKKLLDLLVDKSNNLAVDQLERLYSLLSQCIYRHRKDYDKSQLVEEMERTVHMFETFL
In words: Binding affinity to human partial length ATAD2B (Q955 to R1082 residues) expressed in bacterial expression system by BROMOscan assay.

Series [2] addresses T2, Transcription initiation factor TFIID subunit 1 (Homo sapiens, UniProt P21675). In words: Binding affinity to human partial length TAF1 bromodomain 2 (D1521 to D1656 residues) expressed in bacterial expression system by BROMOscan assay.
Series [3] deals with Blood. Description: Inhibition of LPS-induced MCP1 production in human whole blood preincubated for 30 mins followed by LPS addition and measured after overnight incubation by mesoscale assay. The format is functional, tissue-based.
In series [4] the test system is Blood. Description: Inhibition of LPS-induced TNFalpha production in human whole blood preincubated for 30 mins followed by LPS addition and measured after overnight incubation by mesoscale assay. The series is classed as functional, tissue-based.
Series [5] relates to B cell. In words: Downregulation of IL-2 secretion in human B cells cocultured with human PBMC at 0.37 to 10 uM preincubated for 1 hr followed by anti-IgM and TCR stimulation and measured after 84 hrs by ELISA. The format is functional, cell-based. Conditions: dose microM 0.37-10, time 1.0 hrs.
For series [6], the target named is T2, Transcription initiation factor TFIID subunit 1. Description: Displacement of AlexaFluor 488-labelled BD-AF488 from TAF1 BD2 (unknown origin) incubated for 15 mins by TR-FRET assay. For orientation: TR-FRET usually uses a lanthanide donor and a delayed reading to cut background.
Series [7] deals with Bromodomain-containing protein 3 (Homo sapiens, UniProt Q15059). In words: Binding affinity to human partial length BRD3 bromodomain 1 (P24 to E144 residues) expressed in bacterial expression system by BROMOscan assay.
Chain of Bromodomain-containing protein 3 (Q15059 whole entry, the tested form may be a part): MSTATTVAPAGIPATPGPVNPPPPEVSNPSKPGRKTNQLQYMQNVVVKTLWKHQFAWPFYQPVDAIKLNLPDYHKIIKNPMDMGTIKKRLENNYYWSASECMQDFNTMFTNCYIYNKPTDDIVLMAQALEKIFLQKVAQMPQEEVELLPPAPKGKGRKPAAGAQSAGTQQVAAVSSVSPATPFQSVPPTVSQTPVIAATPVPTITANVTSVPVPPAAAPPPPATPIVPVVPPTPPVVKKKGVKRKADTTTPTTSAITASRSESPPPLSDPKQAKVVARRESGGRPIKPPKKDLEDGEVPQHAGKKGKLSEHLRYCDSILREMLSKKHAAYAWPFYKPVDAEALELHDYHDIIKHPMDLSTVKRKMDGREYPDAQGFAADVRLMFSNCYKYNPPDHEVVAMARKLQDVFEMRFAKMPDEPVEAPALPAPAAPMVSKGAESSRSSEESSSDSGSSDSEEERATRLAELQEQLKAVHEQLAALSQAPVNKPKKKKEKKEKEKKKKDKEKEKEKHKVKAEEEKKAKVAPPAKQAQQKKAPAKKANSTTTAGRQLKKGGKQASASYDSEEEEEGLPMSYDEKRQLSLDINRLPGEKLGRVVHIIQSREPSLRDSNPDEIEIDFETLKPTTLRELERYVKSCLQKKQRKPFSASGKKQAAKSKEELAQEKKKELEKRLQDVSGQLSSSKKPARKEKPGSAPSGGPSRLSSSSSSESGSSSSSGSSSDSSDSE
The subject of series [8] is B cell. Description: Downregulation of IL-17A secretion in human B cells cocultured with human PBMC at 0.37 to 10 uM preincubated for 1 hr followed by anti-IgM and TCR stimulation and measured after 84 hrs by ELISA. The format is functional, cell-based. As to conditions: dose microM 0.37-10, time 1.0 hrs.
Series [9] can be described thus: Intrinsic clearance in rat hepatocytes at 0.5 uM measured up to 60 mins by LC-MS/MS analysis. Conditions: 1 h. The series is classed as ADME, cell-based, Hepatocyte.
In series [10] the test system is B cell. In words: Downregulation of IL-6 secretion in human B cells cocultured with human PBMC at 0.37 to 10 uM preincubated for 1 hr followed by anti-IgM and TCR stimulation and measured after 84 hrs by ELISA. The format is functional, cell-based. Conditions: dose microM 0.37-10, time 1.0 hrs.

Each structure is given as a SMILES string. The source made the active and inactive calls. The rule behind the calls is not given here.

T2 sequence (P21675 whole entry, the tested form may be a part): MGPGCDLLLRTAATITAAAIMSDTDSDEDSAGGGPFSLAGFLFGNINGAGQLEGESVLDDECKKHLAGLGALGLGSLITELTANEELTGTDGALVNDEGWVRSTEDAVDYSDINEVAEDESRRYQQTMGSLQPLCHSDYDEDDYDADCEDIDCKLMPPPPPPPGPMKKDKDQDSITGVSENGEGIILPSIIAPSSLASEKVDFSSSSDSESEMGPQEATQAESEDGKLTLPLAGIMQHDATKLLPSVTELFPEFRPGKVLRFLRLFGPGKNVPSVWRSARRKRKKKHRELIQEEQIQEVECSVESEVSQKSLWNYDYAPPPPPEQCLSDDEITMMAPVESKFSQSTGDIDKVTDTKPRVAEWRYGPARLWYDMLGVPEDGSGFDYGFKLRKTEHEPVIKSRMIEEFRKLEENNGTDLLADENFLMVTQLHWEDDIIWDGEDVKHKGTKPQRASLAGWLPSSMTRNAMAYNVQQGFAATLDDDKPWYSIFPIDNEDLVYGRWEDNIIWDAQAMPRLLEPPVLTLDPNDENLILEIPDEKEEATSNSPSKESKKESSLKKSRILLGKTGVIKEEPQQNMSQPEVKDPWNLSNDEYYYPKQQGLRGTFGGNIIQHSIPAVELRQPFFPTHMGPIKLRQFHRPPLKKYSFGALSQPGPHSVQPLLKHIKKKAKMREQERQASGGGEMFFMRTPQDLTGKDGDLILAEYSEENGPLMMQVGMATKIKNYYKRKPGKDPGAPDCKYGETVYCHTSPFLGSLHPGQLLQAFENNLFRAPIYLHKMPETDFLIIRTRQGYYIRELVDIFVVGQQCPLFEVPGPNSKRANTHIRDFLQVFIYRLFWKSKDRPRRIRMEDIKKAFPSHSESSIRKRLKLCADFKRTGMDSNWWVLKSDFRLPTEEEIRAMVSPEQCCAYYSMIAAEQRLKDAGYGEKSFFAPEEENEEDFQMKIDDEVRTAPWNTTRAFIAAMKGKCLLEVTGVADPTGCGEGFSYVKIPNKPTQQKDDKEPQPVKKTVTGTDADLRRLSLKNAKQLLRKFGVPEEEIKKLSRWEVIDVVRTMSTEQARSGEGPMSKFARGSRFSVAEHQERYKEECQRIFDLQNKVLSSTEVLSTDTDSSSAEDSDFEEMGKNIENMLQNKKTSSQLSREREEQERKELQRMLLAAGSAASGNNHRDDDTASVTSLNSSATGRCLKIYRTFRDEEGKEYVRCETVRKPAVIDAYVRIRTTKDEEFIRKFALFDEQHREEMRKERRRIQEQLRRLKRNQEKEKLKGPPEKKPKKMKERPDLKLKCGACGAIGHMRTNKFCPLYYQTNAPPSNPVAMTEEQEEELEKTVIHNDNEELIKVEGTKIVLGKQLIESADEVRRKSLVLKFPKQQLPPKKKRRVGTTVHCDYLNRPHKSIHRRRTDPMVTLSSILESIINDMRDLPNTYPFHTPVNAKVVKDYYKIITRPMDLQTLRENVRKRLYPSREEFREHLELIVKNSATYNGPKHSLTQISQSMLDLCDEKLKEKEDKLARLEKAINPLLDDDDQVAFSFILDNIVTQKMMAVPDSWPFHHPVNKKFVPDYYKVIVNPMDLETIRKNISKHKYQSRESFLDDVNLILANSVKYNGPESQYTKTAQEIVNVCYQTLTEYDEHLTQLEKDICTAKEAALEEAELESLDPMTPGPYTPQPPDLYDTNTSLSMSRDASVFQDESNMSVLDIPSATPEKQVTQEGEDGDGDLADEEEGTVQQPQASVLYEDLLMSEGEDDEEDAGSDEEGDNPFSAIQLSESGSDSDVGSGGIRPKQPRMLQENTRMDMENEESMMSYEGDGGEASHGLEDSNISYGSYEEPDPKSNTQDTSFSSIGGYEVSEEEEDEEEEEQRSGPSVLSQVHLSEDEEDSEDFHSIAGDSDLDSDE

What is called IC50 is the concentration that inhibits the measured activity by half. A higher IC50 goes with weaker potency in that assay. As a reminder, the Kd is the free concentration of one partner at which half of the binding sites on the other are occupied at equilibrium, for simple one-to-one binding. Low readings indicate tighter binding, high ones weaker binding. In the case of `Cc1cc2c(-c3ccco3)cnc(N[C@@H]3CCN(C)C[C@H]3C(=O)NC3CCCCC3)c2[nH]c1=O` [GSK789], the IC50 is 158 nM in the series with THP-1, 670 nM in the series on Blood [3], 870 nM with Blood [4] and 10000 nM in [6]. Also, the dissociation constant (Kd) in series [1] is 15800 nM; in [2], 50.1 nM; in [7] it was 15.8 nM. For the same compound, the result in the series on B cell [5], in the series with B cell [8] and in the series on B cell [10] was Active. The compound also had a CLH in series [9] of 14.88 mL/min/g.
